Where two headings read alike, the source gives them in different places. Marks after values point to notes of the source that are not given here.
How the values were obtained:
[1] = test system: Caco-2 monolayer; assay: Permeability of model compounds in the accelerated 4-day Caco-2 system (apical to baso-lateral transport)
Procedure: (§1) A method of using the medium also is part of the present invention. The following description is representative of how this would be done. Caco-2 cells (available from ATCC, Manassas, Va.) are resuspended in the HTB-10 medium and seeded on 3 μm polycarbonate 6-well Transwell® cell culture inserts (diameter 24.5 mm, Corning Costar) at a density of about 0.2×10^6 cells/cm^2. The seeding of the cells was performed on dry filters by placing 1.5 mL of the cell suspension on the apical side first, followed by addition of 2.5 mL of HTB-10 medium to the baso-lateral side.
(§2) To induce cell polarity, the volume of the medium on the apical side was decreased from 1.5 ml to 0.5 mL 48 hours post seeding, and the cells were fed primarily from the baso-lateral side. After the switch, the medium was changed every 24 hr for a total incubation period of 4 days.
(§3) The differentiation status and the monolayer integrity were monitored by measurements of transepithelial electrical resistance (TEER) and by determination of permeability of mannitol. […] The accelerated Caco-2 system was also evaluated through a validation process that was based on FDA guidelines for the Biopharmaceuticals Classification System (BCS). In that process, Caco-2 cell permeability coefficients were determined for 26 structurally diverse compounds that were then rank-ordered according to the fraction absorbed in humans. The transport studies were conducted as follows. The donor solution of the drug was placed on the apical side of a sample filter (1.5 mL) and the buffer solution (HBSS, pH 7.4) was placed on the baso-lateral side (2.5 mL). The plates were incubated at 37° C. on a shaker for 1-3 hr. Samples were collected at the designated time points and analyzed by either HPLC (uv)or radiometry (for radioactive compounds).

[2] = test system: Caco-2 monolayer; settings: cited from earlier work
[3] = fraction absorbed in humans, reported in the literature; cited from earlier work
[4] = in vitro; settings: human; for Papp A→B: Caco-2, pH 7.4
Procedure: as §1, §2, §3

[5] = BCS validation set, compounds rank-ordered according to fraction absorbed in humans

Molecule: CN(Cc1cnc2nc(N)nc(N)c2n1)c1ccc(C(=O)N[C@@H](CCC(=O)O)C(=O)O)cc1 [Methotraxate]
- [PM × 10^−6] cm/sec ([1]; 4-day Caco-2 in HTB-10, donor apical, HBSS pH 7.4, 37° C., 1-3 hr, donor concentration per Table 1): 4.2 +/− 0.7 × 10^−6 cm/sec
- Permeability class [2, 5]: Low
- % fa in humans [3]: 20-100** %

Molecule: Cn1c(=O)c2[nH]cnc2n(C)c1=O [Theophylline]
- % fa in humans [3]: 96%

Molecule: Cc1cc(=O)n(-c2ccccc2)n1C [Antipyrine]
- % fa in humans [3]: 97-100%

Molecule: CC(C)(C)NCC(O)c1cc(O)cc(O)c1 (stereo not drawn) [Terbutalin]
- Papp A→B [4]: 5.54 ×10⁻⁶ cm/s
- Permeability class [2, 5]: Medium
- % fa in humans [3]: 50-73%

Molecule: PEG-400
- [PM × 10^−6] cm/sec ([1]; Caco-2, pH 7.4): 1.1 +/− 0.1 × 10^−6 cm/sec

Molecule: CC1(C)S[C@@H]2[C@H](NC(=O)[C@H](N)c3ccc(O)cc3)C(=O)N2[C@H]1C(=O)O [Amoxicillin]
- Papp A→B [4]: 0.02 ×10⁻⁶ cm/s
- Permeability class [2, 5]: Low
- % fa in humans [3]: 94** %

Molecule: OC[C@@H](O)[C@@H](O)[C@H](O)[C@H](O)CO [Mannitol]
- Papp ([4]; Caco-2): 0.7 to 6.3 ×10⁻⁶ cm/s
- Papp A→B [4]: 3 ×10⁻⁶ cm/s
- Permeability class [2, 5]: Low
- % fa in humans [3]: 16-26%

Molecule: NS(=O)(=O)c1cc(C(=O)O)c(NCc2ccco2)cc1Cl [Furosemide]
- % fa in humans [3]: 61%

Molecule: C[C@](N)(Cc1ccc(O)c(O)c1)C(=O)O [L-alpha-methyldopa]
- [PM × 10^−6] cm/sec ([1]; human, Caco-2, pH 7.4): 5.7 +/− 0.5 × 10^−6 cm/sec
- Permeability class ([2]; Caco-2): Low
- % fa in humans [3]: 44** %

Molecule: C[C@]12CC[C@H]3[C@@H](CCC4=CC(=O)CC[C@@]43C)[C@@H]1CC[C@@H]2O [Testosterone]
- % fa in humans [3]: 100%

Molecule: CC(C)(C)NC[C@H](O)COc1nsnc1N1CCOCC1 [Timolol]
- Papp A→B [4]: 25.4 ×10⁻⁶ cm/s
- Permeability class [2, 5]: Medium
- % fa in humans [3]: 72-75%

Molecule: NC(=O)N1c2ccccc2C=Cc2ccccc21 [Carbamazepine]
- Papp A→B [4]: 84.6 ×10⁻⁶ cm/s
- Permeability class [2, 5]: High
- % fa in humans [3]: 100%

Molecule: COc1ccc2cc([C@H](C)C(=O)O)ccc2c1 [Naproxen]
- % fa in humans [3]: 94-100%

Molecule: COCCc1ccc(OCC(O)CNC(C)C)cc1 (stereo not drawn) [Metoprolol]
- Papp A→B [4]: 43.6 ×10⁻⁶ cm/s
- Permeability class [2, 5]: High

Molecule: NS(=O)(=O)c1cc2c(cc1Cl)NCNS2(=O)=O [Hydrochlorthiazide]
- Papp A→B [4]: 6.9 ×10⁻⁶ cm/s
- % fa in humans [3]: 65-72%

Molecule: CNC(=C[N+](=O)[O-])NCCSCc1ccc(CN(C)C)o1 [Ranitidine]
- Papp A→B [4]: 2.2 ×10⁻⁶ cm/s
- Permeability class [2, 5]: Medium
- % fa in humans [3]: 50-61%

Molecule: PEG-900
- [PM × 10^−6] cm/sec ([1]; Caco-2, pH 7.4): 0.7 +/− 0.1 × 10^−6 cm/sec

Molecule: CC(C)NCC(O)COc1ccc(CC(N)=O)cc1 (stereo not drawn) [Atenolol]
- % fa in humans [3]: 50-54%

Molecule: CC(C)NCC(O)COc1cccc2ccccc12 (stereo not drawn) [Propranolol]
- Papp A→B [4]: 19.3 ×10⁻⁶ cm/s
- Permeability class [2, 5]: High

Molecule: CC(C(=O)O)c1cccc(C(=O)c2ccccc2)c1 (stereo not drawn) [Ketoprofen]
- Papp A→B [4]: 48.6 ×10⁻⁶ cm/s
- Permeability class [2, 5]: High

Molecule: NC(N)=Nc1nc(CSCCC(N)=NS(N)(=O)=O)cs1 [Famotidine]
- Papp A→B [4]: 1.36 ×10⁻⁶ cm/s
- Permeability class [2, 5]: Low
- % fa in humans [3]: 38%

Molecule: Nc1nc2c(ncn2COCCO)c(=O)[nH]1 [Acyclovir]
- Papp A→B [4]: 3.8 ×10⁻⁶ cm/s

Molecule: PEG-4000
- [PM × 10^−6] cm/sec ([1]; Caco-2, pH 7.4): 0.6 +/− 0.1 × 10^−6 cm/sec

Molecule: CC(C)n1c(/C=C/C(O)CC(O)CC(=O)O)c(-c2ccc(F)cc2)c2ccccc21 (stereo not drawn) [Fluvastatin]
- Papp A→B [4]: 10.8 ×10⁻⁶ cm/s
- Permeability class [2, 5]: High

— US7300794B2, “Accelerated culture system for intestinal epithelial cell monolayers” (Supernus Pharmaceuticals, Inc., priority 2003, dated 2007)
